Test results taken from patent EP1683521A1, “Peptide deformylase inhibitors, their use, and pharmaceutical compositions containing the same” (CENTRE NATIONAL DE LA RECHERCHE SCIENTIFIQUE (CNRS), priority 2005, dated 2006).
≈ marks a conversion by molar mass, not a printed value. Read-outs that look alike come from different tables or passages of the source.

Tests used:
[1] = tested on: B. subtilis-MHY101; test: B. subtilis MIC; settings: Bacillus subtilis
[2] = target: T1, BsPDF2 (Geobacillus stearothermophilus, UniProt O31410); test: PDF inhibition assay coupled to formate dehydrogenase (in vitro assay); format: biochemical, Bacillus stearothermophilus
T1 construct: made in house

[3] = tested on: B. subtilis-M03482; test: B. subtilis MIC; settings: Bacillus subtilis
[4] = target: T2, EcPDF1B (Escherichia coli, UniProt P0A6K3); test: PDF inhibition assay coupled to formate dehydrogenase (in vitro assay); format: biochemical
T2 construct: made in house

[5] = tested on: B. subtilis-168; test: B. subtilis MIC
[6] = target: T3, AtPDF1A (Arabidopsis thaliana, UniProt Q9FV53); test: PDF inhibition assay coupled to formate dehydrogenase (in vitro assay); format: biochemical; settings: mitochondrial PDF, 25 nM in assay; 10 % dimethyl sulfoxide; (TB) = tight binding
T3 construct: made in house

[7] = tested on: B. subtilis-MHD101; test: B. subtilis MIC; settings: Bacillus subtilis
[8] = tested on: E. coli-JM101Tr; test: E. coli MIC, WT strain; settings: Escherichia coli, WT strain JM101Tr
[9] = tested on: E. coli-CAG1284; test: E. coli MIC, tolC mutant strain; settings: Escherichia coli
[10] = tested on: Arabidopsis thaliana (ecotype WS4); test: Growth inhibition of Arabidopsis thaliana; format: in vivo
[11] = target: T4, EcPDF (Escherichia coli, UniProt P0A6K3); test: NMR titrations on peptide deformylase; format: binding; settings: probed by NMR titrations
T4 construct: made in house

[12] = nickel-bound enzyme, 20 nM in assay, 10 % dimethyl sulfoxide, (TB) = tight binding, read-out: IC50
[13] = nickel-bound enzyme, 40 nM in assay, 10 % dimethyl sulfoxide, (TB) = tight binding, read-out: IC50
[14] = WT context (strains 168 and MO3482)

T3 sequence (Q9FV53 61-269): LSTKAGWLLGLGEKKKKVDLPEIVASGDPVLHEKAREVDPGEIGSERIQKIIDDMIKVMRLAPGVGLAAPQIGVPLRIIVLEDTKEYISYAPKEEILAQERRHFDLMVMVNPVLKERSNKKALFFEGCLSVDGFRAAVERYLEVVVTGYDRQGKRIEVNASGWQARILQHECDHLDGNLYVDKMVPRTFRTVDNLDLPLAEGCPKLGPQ
T2 sequence (P0A6K3 whole entry): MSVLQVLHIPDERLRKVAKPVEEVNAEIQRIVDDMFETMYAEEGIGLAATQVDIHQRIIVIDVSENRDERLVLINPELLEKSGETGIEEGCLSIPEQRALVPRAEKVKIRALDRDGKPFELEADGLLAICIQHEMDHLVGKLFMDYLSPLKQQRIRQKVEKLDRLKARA
T1 sequence (O31410 whole entry): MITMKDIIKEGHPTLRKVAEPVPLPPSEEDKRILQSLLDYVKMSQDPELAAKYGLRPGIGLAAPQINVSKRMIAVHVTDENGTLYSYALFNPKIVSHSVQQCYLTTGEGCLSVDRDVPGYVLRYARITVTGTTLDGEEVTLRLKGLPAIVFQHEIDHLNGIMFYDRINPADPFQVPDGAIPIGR
T4 sequence (P0A6K3 1-148): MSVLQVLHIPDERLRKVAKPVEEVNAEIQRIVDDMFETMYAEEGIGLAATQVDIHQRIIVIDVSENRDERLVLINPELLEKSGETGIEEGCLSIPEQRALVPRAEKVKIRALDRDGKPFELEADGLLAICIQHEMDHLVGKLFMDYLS

Row | SMILES | MIC [1] [µg/mL] | IC50 [2, 12] [nM] | MIC [3] [µg/mL] | IC50 [4, 13] [nM] | MIC ([5]; Bacillus subtilis) [µg/mL] | MIC [5, 14] | IC50 [6] [nM] | MIC [7] [µg/mL] | MIC [8] [µg/mL] | IC50 [2] [nM] | MIC [9] [µg/mL] | IC50 [4] [nM] | MIC ([5]; strain 168 (WT context)) [µg/mL] | concentration at which growth inhibition is observed [10] | binding constant [11]
1 | CC(C)(C)OC(=O)NC(Cc1ccccc1)CN(O)C=O (stereo not shown) [RAS358] | 9 (≈ 30.6 µM) | 400 | > 300 | 50 | > 300 | no antibiotic properties | 150000 | > 300 | – | – | – | – | – | – | –
2 | CC(C)(C)OC(=O)NC(CC(=O)NO)Cc1ccccc1 (stereo not shown) [RAS270] | 8 (≈ 27.2 µM) | – | > 300 | – | > 300 | no antibiotic properties | 83000 | > 300 | > 300 | 300 | 32 (≈ 109 µM) | 44 | – | – | –
3 | O=C(Cc1cn(C(=O)OCc2ccccc2)c2ccc(Br)cc12)NO [Compound 2, 5-bromo-3-hydroxycarbamoylmethyl-indole-1-carboxylic acid benzyl ester] | 6 (≈ 14.9 µM) | < 27 | 16 (≈ 39.7 µM) | 26 | 20 (≈ 49.6 µM) | – | 14000 | 12 (≈ 29.8 µM) | – | – | – | – | 20 (≈ 49.6 µM) | higher than 50 µM | –
4 | Brc1ccc2[nH]ccc2c1 [5-bromoindole] | – | – | – | – | – | – | – | – | – | – | – | – | – | – | in the millimolar range
